Reference: US10278984B2, “Guanosine as an immune potentiator mediated through toll receptors” (Nitor Therapeutics, priority 2014, dated 2019)

How the values were obtained:
human TLR2 = target: T1, human TLR2 (Homo sapiens, UniProt O60603); test: TLR ligand screening: NF-κB SEAP reporter, agonist; assay type: cell-based; details: HEK293 cells expressing TLR2; guanosine 100 uM, NTR001 10 uM, inosine 100 uM; triplicate
T1 construct: expressed in transfected cells; host or cells: HEK293
Procedure: (§1) Method: TLR stimulation is tested by assessing NF-κB activation in HEK293 cells expressing a given TLR. The Secreted Embryonic Alkaline Phosphatase (SEAP) reporter is under the control of a promoter inducible by the transcription factor NF-κB. This reporter gene allows the monitoring of signaling through the TLR based on the activation of NF-κB. The activity of the compounds is tested on seven different human TLRs (TLR2, 3, 4, 5, 7, 8 and 9) as a potential agonist. The compounds are evaluated at one concentration and compared to control ligands. This step is performed in triplicate.

human TLR4 = target: T2, human TLR4 (Homo sapiens, UniProt O00206+Q9Y6Y9); test: TLR ligand screening: NF-κB SEAP reporter, agonist; assay type: cell-based; details: HEK293 cells expressing TLR4; guanosine 100 uM, NTR001 10 uM, inosine 100 uM; triplicate
T2 construct: expressed in transfected cells; host or cells: HEK293
T2 sequence (O00206 24-839): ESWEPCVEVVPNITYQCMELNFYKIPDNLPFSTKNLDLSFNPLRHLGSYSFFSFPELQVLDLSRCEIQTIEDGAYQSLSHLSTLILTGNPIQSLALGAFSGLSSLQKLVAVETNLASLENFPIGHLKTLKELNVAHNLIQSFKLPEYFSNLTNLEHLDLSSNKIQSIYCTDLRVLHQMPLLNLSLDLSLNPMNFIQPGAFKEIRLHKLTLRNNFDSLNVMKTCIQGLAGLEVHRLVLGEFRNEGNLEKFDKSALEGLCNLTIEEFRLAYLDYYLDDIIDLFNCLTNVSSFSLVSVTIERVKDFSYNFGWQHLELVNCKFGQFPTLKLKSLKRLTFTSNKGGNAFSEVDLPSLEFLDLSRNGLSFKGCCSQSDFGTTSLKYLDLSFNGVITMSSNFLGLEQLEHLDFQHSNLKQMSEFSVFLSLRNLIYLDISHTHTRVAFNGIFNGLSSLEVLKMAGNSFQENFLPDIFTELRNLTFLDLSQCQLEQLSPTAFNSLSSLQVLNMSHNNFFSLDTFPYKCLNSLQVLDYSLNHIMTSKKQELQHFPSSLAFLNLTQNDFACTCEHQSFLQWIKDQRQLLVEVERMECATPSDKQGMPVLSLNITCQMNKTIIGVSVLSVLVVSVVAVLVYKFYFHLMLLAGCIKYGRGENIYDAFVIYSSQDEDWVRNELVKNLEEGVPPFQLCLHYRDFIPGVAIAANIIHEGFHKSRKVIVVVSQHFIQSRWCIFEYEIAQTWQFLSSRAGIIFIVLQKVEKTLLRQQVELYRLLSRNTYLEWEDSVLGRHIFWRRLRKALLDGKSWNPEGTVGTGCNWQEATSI
T2 sequence (Q9Y6Y9 17-160 limits assumed): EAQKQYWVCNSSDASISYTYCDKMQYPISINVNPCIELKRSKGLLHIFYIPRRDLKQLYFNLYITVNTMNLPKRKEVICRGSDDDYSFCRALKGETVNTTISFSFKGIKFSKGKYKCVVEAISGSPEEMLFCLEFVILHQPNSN
Procedure: as §1

B16 tumors = test: Mouse melanoma model, NTR001 and cyclophosphamide; assay type: in vivo, C57BL/6 mice; details: cyclophosphamide 100 mg/kg IP single dose
Procedure: Method: Cancer cells were injected subcutaneously in right flank of each mouse, 1×10^4 cells in 0.1 ml PBS with 20% Matrigel. Treatment with the NTR001 was initiated on day 6 after injection of tumor cells. Tumor volume and survival were recorded every 3-4 days.

human TLR3 = target: T3, human TLR3 (Homo sapiens, UniProt O15455); test: TLR ligand screening: NF-κB SEAP reporter, agonist; assay type: cell-based; details: HEK293 cells expressing TLR3; NTR001 10 uM, inosine 100 uM
T3 construct: expressed in transfected cells; host or cells: HEK293
T3 sequence (O15455 24-904): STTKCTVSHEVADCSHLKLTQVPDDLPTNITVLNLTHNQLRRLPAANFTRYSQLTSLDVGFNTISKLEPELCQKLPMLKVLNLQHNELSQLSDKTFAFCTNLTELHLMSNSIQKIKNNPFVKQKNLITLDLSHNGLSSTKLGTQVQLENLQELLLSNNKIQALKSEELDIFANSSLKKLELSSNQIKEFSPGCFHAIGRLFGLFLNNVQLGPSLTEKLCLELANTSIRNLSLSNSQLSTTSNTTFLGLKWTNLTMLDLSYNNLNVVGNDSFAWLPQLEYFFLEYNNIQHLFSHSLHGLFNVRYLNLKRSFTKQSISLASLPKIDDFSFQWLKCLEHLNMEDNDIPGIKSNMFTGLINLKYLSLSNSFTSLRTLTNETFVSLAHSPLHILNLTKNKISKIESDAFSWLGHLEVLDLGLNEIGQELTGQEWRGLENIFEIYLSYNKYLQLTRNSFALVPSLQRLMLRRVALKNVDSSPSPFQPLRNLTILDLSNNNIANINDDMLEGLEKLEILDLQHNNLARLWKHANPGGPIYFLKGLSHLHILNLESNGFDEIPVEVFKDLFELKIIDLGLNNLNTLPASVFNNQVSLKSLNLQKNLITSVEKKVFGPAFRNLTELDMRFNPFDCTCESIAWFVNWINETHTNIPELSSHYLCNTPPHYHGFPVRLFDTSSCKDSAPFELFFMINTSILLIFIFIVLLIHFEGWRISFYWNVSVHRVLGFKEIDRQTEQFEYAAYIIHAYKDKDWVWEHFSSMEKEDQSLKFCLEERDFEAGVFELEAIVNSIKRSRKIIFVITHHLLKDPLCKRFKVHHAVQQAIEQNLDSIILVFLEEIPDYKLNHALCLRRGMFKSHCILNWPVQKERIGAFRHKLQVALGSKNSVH
Procedure: as §1

human TLR5 = target: T4, human TLR5 (Homo sapiens, UniProt O60602); test: TLR ligand screening: NF-κB SEAP reporter, agonist; assay type: cell-based; details: HEK293 cells expressing TLR5; NTR001 10 uM, inosine 100 uM
T4 construct: expressed in transfected cells; host or cells: HEK293
T4 sequence (O60602 21-858): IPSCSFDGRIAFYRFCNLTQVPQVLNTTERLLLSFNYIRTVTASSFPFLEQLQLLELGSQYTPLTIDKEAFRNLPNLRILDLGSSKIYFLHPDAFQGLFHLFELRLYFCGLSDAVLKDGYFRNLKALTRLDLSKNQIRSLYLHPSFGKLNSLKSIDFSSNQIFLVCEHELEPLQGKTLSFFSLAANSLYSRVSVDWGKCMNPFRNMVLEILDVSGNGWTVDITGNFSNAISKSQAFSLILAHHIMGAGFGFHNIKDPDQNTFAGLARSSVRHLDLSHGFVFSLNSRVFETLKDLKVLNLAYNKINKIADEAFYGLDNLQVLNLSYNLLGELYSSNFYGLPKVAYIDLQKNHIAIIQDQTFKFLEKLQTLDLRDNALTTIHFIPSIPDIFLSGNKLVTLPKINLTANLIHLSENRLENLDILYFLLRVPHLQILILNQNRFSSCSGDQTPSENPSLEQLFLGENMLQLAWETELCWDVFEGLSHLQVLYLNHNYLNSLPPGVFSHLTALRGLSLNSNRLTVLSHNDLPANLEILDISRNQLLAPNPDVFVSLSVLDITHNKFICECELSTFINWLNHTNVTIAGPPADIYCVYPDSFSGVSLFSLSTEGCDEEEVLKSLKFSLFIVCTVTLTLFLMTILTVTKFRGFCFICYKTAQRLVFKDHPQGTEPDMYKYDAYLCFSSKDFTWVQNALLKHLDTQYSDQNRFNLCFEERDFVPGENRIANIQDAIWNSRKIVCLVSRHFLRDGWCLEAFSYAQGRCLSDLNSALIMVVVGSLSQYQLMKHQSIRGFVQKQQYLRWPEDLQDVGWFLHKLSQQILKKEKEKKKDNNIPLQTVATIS
Procedure: as §1

human TLR7 = target: T5, human TLR7 (Homo sapiens, UniProt Q9NYK1); test: TLR ligand screening: NF-κB SEAP reporter, agonist; assay type: cell-based; details: HEK293 cells expressing TLR7; NTR001 10 uM, inosine 100 uM
T5 construct: expressed in transfected cells; host or cells: HEK293
T5 sequence (Q9NYK1 27-1049): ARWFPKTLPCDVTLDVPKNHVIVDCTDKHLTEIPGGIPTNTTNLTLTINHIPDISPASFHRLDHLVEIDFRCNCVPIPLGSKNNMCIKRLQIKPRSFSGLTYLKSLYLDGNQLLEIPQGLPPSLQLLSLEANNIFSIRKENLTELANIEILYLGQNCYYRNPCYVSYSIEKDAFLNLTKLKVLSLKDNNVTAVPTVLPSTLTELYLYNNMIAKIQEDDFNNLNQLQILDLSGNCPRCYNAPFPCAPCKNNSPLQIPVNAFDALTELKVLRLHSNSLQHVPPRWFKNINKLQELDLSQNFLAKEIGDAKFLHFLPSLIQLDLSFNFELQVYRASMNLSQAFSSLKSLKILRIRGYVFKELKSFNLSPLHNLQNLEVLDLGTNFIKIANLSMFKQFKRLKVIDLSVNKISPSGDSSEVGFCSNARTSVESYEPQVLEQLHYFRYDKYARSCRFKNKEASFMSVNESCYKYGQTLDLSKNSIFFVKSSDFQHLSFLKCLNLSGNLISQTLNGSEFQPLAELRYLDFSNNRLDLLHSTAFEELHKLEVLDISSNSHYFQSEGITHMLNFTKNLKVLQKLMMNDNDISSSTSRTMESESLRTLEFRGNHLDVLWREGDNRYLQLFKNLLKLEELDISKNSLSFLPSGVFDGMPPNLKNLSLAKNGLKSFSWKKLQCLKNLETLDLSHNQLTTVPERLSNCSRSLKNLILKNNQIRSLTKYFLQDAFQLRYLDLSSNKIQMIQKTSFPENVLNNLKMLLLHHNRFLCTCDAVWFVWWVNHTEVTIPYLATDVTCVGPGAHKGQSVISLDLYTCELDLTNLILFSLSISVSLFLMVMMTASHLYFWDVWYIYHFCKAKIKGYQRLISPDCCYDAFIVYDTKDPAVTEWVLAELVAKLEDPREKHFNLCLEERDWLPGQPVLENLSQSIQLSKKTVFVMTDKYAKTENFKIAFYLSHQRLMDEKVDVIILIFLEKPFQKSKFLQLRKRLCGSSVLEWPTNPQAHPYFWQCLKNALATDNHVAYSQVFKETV
Procedure: as §1

human TLR8 = target: T6, human TLR8 (Homo sapiens, UniProt Q9NR97); test: TLR ligand screening: NF-κB SEAP reporter, agonist; assay type: cell-based; details: HEK293 cells expressing TLR8; NTR001 10 uM, inosine 100 uM
T6 construct: expressed in transfected cells; host or cells: HEK293
T6 sequence (Q9NR97 27-1041): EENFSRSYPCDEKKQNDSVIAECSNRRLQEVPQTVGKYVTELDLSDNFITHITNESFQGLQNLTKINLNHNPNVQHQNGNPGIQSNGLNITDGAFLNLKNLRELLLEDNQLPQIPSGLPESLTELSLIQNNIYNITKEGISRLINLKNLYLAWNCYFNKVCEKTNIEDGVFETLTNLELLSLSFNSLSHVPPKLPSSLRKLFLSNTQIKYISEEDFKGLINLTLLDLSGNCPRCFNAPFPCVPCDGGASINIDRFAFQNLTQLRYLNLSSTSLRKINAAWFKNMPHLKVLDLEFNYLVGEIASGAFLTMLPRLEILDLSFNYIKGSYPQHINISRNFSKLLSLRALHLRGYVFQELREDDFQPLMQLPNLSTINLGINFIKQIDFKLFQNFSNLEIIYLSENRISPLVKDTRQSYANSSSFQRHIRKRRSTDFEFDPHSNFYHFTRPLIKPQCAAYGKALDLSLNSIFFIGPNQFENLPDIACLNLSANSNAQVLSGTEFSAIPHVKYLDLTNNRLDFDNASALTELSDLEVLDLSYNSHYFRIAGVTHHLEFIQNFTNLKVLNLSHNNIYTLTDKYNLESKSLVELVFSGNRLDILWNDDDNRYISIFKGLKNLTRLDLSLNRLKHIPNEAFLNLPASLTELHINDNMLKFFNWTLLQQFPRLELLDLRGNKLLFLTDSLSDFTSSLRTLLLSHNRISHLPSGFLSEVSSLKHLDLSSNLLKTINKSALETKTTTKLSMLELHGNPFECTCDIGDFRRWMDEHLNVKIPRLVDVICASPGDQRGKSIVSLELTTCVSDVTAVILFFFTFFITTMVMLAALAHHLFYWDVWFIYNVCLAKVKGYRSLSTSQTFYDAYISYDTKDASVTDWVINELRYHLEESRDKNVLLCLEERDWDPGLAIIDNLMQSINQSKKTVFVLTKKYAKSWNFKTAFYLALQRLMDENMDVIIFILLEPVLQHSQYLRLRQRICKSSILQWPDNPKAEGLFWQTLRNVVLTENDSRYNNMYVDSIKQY
Procedure: as §1

human TLR9 = target: T7, human TLR9 (Homo sapiens, UniProt Q9NR96); test: TLR ligand screening: NF-κB SEAP reporter, agonist; assay type: cell-based; details: HEK293 cells expressing TLR9; NTR001 10 uM, inosine 100 uM
T7 construct: expressed in transfected cells; host or cells: HEK293
T7 sequence (Q9NR96 26-1032): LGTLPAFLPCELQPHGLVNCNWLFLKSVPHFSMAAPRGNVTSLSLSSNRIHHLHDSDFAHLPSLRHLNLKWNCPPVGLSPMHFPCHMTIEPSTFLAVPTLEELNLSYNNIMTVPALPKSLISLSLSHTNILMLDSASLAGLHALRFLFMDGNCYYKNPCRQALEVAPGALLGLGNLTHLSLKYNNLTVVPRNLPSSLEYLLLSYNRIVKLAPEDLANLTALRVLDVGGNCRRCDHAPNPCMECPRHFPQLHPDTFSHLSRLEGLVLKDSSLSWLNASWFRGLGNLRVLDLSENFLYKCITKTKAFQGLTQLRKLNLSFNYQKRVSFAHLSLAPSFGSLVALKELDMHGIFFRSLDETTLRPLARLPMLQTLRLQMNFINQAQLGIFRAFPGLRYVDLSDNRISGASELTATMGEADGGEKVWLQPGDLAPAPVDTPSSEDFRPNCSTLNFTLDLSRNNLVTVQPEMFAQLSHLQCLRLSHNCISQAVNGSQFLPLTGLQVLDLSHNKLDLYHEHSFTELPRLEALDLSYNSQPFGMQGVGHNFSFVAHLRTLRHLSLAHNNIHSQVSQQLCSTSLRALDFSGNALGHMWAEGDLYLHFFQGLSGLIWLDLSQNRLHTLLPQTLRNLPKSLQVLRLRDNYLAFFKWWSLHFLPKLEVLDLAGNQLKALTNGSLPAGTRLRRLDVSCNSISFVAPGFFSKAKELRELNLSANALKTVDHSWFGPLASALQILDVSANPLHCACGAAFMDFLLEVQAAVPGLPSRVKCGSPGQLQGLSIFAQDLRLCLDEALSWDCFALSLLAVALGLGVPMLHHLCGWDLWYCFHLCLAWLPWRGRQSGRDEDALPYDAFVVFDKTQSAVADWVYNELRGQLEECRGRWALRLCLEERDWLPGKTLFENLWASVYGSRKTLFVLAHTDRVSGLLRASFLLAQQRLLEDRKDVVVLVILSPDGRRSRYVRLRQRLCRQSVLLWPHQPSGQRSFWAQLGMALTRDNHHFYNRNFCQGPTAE
Procedure: as §1

T1 sequence (O60603 21-784): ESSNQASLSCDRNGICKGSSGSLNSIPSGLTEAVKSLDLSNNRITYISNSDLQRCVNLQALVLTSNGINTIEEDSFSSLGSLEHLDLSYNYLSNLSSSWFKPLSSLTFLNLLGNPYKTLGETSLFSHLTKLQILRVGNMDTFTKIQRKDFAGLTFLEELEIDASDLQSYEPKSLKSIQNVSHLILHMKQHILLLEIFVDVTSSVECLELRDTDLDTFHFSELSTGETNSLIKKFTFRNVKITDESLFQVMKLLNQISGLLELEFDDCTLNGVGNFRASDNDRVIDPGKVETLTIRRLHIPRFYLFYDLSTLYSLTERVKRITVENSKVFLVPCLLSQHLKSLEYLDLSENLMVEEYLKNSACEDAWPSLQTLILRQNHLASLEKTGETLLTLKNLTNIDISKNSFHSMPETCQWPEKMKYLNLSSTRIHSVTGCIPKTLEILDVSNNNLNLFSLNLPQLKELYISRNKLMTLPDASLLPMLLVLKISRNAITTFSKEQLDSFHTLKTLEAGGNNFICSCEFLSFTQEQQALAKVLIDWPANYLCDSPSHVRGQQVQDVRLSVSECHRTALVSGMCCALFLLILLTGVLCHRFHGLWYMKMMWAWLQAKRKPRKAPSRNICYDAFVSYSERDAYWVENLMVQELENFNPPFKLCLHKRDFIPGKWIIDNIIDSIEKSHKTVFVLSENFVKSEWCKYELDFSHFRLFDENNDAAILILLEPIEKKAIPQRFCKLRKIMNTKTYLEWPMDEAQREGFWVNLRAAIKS

## Nc1nc2c(ncn2[C@@H]2O[C@H](CO)[C@@H](O)[C@H]2O)c(=O)[nH]1 [Guansoine, guanosine]
Human TLR2
  stimulatory effect on human TLR2 (NF-κB activation): significant stimulatory effect
Human TLR4
  stimulatory effect on human TLR4 (NF-κB activation): significant stimulatory effect

## O=P1(N(CCCl)CCCl)NCCCO1 (stereo not shown) [Cyclcophosphamide, Cyclophosphamide]
B16 tumors
  survival: 30%

## OC[C@H]1O[C@@H](n2cnc3c(O)ncnc32)[C@H](O)[C@@H]1O [Inosine]
Human TLR2
  stimulatory effect on human TLR2 (NF-κB activation): do not directly exhibit a stimulatory effect
Human TLR3
  stimulatory effect on human TLR3 (NF-κB activation): do not directly exhibit a stimulatory effect
Human TLR4
  stimulatory effect on human TLR4 (NF-κB activation): do not directly exhibit a stimulatory effect
Human TLR5
  stimulatory effect on human TLR5 (NF-κB activation): do not directly exhibit a stimulatory effect
Human TLR7
  stimulatory effect on human TLR7 (NF-κB activation): do not directly exhibit a stimulatory effect
Human TLR8
  stimulatory effect on human TLR8 (NF-κB activation): do not directly exhibit a stimulatory effect
Human TLR9
  stimulatory effect on human TLR9 (NF-κB activation): do not directly exhibit a stimulatory effect
